# Columns and labels:
# Integrin alpha-4/beta-1 = Integrin alpha-4/beta-1 (Homo sapiens, UniProt P05556+P13612); test: Inhibitory activity against very late antigen-4 (VLA-4) using VCAM-Ig ligand.; format: protein-complex assay
# [1] = biological target: T1, Integrin alpha-4/beta-7 (Homo sapiens) (UniProt P13612+P26010); test: Inhibition of MadCAM-Ig binding to alpha-4 beta-7 integrin at 0.1 uM; format: protein-complex assay
# Integrin alpha-4/beta-7 = biological target: T2, Integrin alpha-4/beta-7 (Homo sapiens, UniProt P13612+P26010); test: Inhibition of MadCAM-Ig binding to alpha-4 beta-7 integrin; format: protein-complex assay
# T2 sequence (P13612 whole entry): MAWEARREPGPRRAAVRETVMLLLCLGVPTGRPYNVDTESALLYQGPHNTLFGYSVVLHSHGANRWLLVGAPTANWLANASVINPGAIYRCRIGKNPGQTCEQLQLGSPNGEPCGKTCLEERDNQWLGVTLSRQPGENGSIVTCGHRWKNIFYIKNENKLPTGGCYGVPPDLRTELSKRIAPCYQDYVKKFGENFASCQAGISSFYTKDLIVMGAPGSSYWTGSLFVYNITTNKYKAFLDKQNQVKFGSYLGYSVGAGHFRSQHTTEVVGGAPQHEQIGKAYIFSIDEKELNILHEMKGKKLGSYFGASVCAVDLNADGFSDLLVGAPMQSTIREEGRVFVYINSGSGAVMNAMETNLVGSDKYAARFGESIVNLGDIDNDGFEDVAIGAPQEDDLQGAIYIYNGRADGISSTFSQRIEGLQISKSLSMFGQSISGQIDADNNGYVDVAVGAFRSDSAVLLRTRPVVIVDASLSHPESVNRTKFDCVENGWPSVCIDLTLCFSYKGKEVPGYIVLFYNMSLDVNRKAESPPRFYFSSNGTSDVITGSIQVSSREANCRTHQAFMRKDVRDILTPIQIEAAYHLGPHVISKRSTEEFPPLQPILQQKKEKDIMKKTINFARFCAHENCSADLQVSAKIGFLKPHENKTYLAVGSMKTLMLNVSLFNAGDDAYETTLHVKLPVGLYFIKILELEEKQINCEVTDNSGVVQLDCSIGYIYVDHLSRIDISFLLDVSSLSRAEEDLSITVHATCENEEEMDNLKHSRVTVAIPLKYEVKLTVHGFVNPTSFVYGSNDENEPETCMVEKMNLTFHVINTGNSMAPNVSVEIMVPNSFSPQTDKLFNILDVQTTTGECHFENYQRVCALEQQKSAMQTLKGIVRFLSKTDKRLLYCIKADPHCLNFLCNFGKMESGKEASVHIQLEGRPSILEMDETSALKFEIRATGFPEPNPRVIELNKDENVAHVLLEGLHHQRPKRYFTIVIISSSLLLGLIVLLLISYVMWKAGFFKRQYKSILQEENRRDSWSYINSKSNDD
# T2 sequence (P26010 whole entry): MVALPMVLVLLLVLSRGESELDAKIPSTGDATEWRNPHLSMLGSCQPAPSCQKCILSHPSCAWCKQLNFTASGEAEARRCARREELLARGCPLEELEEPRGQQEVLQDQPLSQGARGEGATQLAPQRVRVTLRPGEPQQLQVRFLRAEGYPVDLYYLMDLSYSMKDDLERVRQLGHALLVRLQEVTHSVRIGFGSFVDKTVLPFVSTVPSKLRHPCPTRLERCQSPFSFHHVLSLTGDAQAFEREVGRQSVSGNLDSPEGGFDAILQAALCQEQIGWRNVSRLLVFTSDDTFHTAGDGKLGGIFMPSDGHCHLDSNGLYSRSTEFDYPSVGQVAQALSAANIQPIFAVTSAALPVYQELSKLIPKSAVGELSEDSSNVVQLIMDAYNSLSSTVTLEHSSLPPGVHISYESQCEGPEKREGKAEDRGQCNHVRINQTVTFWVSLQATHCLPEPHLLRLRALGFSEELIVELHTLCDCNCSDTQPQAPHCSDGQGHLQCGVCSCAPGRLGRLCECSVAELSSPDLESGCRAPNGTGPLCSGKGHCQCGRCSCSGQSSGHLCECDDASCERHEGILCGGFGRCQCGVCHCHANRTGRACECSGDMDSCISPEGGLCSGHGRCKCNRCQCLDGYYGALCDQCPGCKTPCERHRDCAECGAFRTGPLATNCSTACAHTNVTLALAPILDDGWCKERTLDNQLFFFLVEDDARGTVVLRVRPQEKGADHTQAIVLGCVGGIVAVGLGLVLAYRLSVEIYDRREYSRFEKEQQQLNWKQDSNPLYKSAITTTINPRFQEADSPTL
# [2] = Volume of distribution was reported in Sprague-Dawley rat; conditions: in vivo
# [3] = Plasma clearance was reported in Sprague-Dawley rat
# in vivo = conditions: Sprague-Dawley, rat, plasma
# Rattus norvegicus = species on record: Rattus norvegicus; test: The plasma concentration versus time curve (AUC) was determined; conditions: in vivo
# [4] = biological target: T1, Integrin alpha-4/beta-7 (Homo sapiens); test: Inhibition of MadCAM-Ig binding to alpha-4 beta-7 integrin at 20 uM; format: protein-complex assay
# Chain of Integrin alpha-4/beta-1 (P05556 whole entry, one chain of several): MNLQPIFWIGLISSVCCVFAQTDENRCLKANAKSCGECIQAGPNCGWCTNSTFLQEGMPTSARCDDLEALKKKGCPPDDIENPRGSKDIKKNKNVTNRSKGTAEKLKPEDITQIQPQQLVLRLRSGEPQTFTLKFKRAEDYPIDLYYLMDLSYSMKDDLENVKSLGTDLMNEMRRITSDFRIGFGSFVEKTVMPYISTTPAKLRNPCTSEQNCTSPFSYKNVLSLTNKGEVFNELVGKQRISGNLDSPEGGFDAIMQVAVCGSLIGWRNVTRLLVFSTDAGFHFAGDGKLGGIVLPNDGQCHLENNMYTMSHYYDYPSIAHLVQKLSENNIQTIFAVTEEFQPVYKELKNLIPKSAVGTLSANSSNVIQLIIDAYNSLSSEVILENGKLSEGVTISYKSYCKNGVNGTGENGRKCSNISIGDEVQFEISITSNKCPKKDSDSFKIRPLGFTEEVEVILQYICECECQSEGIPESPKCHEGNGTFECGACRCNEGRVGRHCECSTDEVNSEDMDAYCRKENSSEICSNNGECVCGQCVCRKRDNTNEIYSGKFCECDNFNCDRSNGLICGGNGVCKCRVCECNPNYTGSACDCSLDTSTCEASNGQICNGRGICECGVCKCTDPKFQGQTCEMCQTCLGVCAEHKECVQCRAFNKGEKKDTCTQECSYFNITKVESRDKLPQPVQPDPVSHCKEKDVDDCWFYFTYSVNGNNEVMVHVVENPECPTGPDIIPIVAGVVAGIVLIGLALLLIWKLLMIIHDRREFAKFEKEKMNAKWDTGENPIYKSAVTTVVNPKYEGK
SMILES,IC50 (Integrin alpha-4/beta-1),other results
O=C(O)[C@H](Cc1ccc([N+](=O)[O-])cc1)NC(=O)[C@@H]1CCCN1S(=O)(=O)c1cc(Cl)cc(Cl)c1,0.3 nM,
O=C(O)[C@H](Cc1ccc(-c2ccccc2)cc1)NC(=O)[C@@H]1CCCN1S(=O)(=O)c1cc(Cl)cc(Cl)c1,0.65 nM,
O=C(O)[C@H](Cc1ccc(F)c(F)c1)NC(=O)[C@@H]1CCCN1S(=O)(=O)c1cc(Cl)cc(Cl)c1,0.48 nM,
O=C(O)[C@H](Cc1ccc(OC(F)(F)F)cc1)NC(=O)[C@@H]1CCCN1S(=O)(=O)c1cc(Cl)cc(Cl)c1,0.86 nM,
O=C(O)[C@H](Cc1ccc(I)cc1)NC(=O)[C@@H]1CCCN1S(=O)(=O)c1cc(Cl)cc(Cl)c1,0.33 nM,
C[C@@]1(C(=O)N[C@@H](Cc2cccc(F)c2)C(=O)O)CCCN1S(=O)(=O)c1cc(Cl)cc(Cl)c1,0.9 nM,inhibition [1]: < 5%
O=C(O)[C@H](Cc1cscn1)NC(=O)[C@@H]1CCCN1S(=O)(=O)c1cc(Cl)cc(Cl)c1,0.73 nM,IC50 (Integrin alpha-4/beta-7): 2350 nM
O=C(O)[C@H](Cc1cccnc1)NC(=O)[C@@H]1CCCN1S(=O)(=O)c1cc(Cl)cc(Cl)c1,0.86 nM,IC50 (Integrin alpha-4/beta-7): 2100 nM
N#Cc1ccc(C[C@H](NC(=O)[C@@H]2CCCN2S(=O)(=O)c2cc(Cl)cc(Cl)c2)C(=O)O)cc1,0.79 nM,
C[C@]1(C(=O)N[C@@H](Cc2ccccc2)C(=O)O)CCCN1S(=O)(=O)c1cc(Cl)cc(Cl)c1,2060 nM,
CC(C)(C)Oc1ccc(C[C@H](NC(=O)[C@@H]2CCCN2S(=O)(=O)c2cc(Cl)cc(Cl)c2)C(=O)O)cc1,0.22 nM,
COc1ccc(C[C@H](NC(=O)[C@]2(C)CCCN2S(=O)(=O)c2cc(Cl)cc(Cl)c2)C(=O)O)cc1,0.59 nM,Vd [2]: 1.4 L/kg; clearance [3]: 47 mL/min/kg; inhibition [1]: 16%; half-life (in vivo): 36 min
O=C(O)[C@H](Cc1ccc(Cl)cc1)NC(=O)[C@@H]1CCCN1S(=O)(=O)c1cc(Cl)cc(Cl)c1,0.85 nM,
O=C(O)[C@H](Cc1ccccn1)NC(=O)[C@@H]1CCCN1S(=O)(=O)c1cc(Cl)cc(Cl)c1,26.5 nM,
O=C(O)[C@H](Cc1cccc(Cl)c1)NC(=O)[C@@H]1CCCN1S(=O)(=O)c1cc(Cl)cc(Cl)c1,3.6 nM,
C[C@@]1(C(=O)N[C@@H](Cc2ccccc2Cl)C(=O)O)CCCN1S(=O)(=O)c1cc(Cl)cc(Cl)c1,1.8 nM,inhibition [1]: < 16%
C[C@@]1(C(=O)N[C@@H](Cc2ccc(Cl)cc2)C(=O)O)CCCN1S(=O)(=O)c1cc(Cl)cc(Cl)c1,2.3 nM,inhibition [1]: < 16%
O=C(O)[C@H](Cc1ccccc1Cl)NC(=O)[C@@H]1CCCN1S(=O)(=O)c1cc(Cl)cc(Cl)c1,0.99 nM,
C[C@@]1(C(=O)N[C@@H](Cc2ccccc2)C(=O)O)CCCN1S(=O)(=O)c1cc(Cl)cc(Cl)c1,1 nM,IC50 (Integrin alpha-4/beta-7): 3550 nM
C[C@@]1(C(=O)N[C@@H](Cc2ccccc2F)C(=O)O)CCCN1S(=O)(=O)c1cc(Cl)cc(Cl)c1,1.7 nM,inhibition [1]: < 5%
O=C(O)[C@H](Cc1cccc(F)c1)NC(=O)[C@@H]1CCCN1S(=O)(=O)c1cc(Cl)cc(Cl)c1,0.67 nM,

SMILES,IC50 (Integrin alpha-4/beta-1),other results
O=C(O)[C@H](Cc1ccccc1F)NC(=O)[C@@H]1CCCN1S(=O)(=O)c1cc(Cl)cc(Cl)c1,1.3 nM,
O=C(O)[C@H](Cc1cccc(C(F)(F)F)c1)NC(=O)[C@@H]1CCCN1S(=O)(=O)c1cc(Cl)cc(Cl)c1,3.2 nM,
C[C@@]1(C(=O)N[C@@H](Cc2ccc(F)cc2)C(=O)O)CCCN1S(=O)(=O)c1cc(Cl)cc(Cl)c1,1.2 nM,Vd [2]: 1.2 L/kg; plasma concentration (Rattus norvegicus): ~ 1 nM; clearance [3]: 44 mL/min/kg; inhibition [1]: < 5%; half-life (in vivo): 72 min
CCc1ccc(C[C@H](NC(=O)[C@@H]2CCCN2S(=O)(=O)c2cc(Cl)cc(Cl)c2)C(=O)O)cc1,0.44 nM,
O=C(O)[C@H](Cc1ccc(Br)cc1)NC(=O)[C@@H]1CCCN1S(=O)(=O)c1cc(Cl)cc(Cl)c1,0.92 nM,
O=C(O)[C@H](Cc1ccc(F)cc1)NC(=O)[C@@H]1CCCN1S(=O)(=O)c1cc(Cl)cc(Cl)c1,0.48 nM,
C[C@@]1(C(=O)N[C@@H](Cc2cccs2)C(=O)O)CCCN1S(=O)(=O)c1cc(Cl)cc(Cl)c1,1.61 nM,inhibition [4]: 45%
O=C(O)[C@H](Cc1cc(F)cc(F)c1)NC(=O)[C@@H]1CCCN1S(=O)(=O)c1cc(Cl)cc(Cl)c1,1.1 nM,
C[C@@]1(C(=O)N[C@@H](Cc2ccc(O)cc2)C(=O)O)CCCN1S(=O)(=O)c1cc(Cl)cc(Cl)c1,0.86 nM,
O=C(O)[C@H](Cc1cccs1)NC(=O)[C@@H]1CCCN1S(=O)(=O)c1cc(Cl)cc(Cl)c1,0.92 nM,IC50 (Integrin alpha-4/beta-7): 2850 nM
O=C(O)[C@H](Cc1ccncc1)NC(=O)[C@@H]1CCCN1S(=O)(=O)c1cc(Cl)cc(Cl)c1,0.67 nM,inhibition [4]: 45%
C[C@@]1(C(=O)N[C@@H](Cc2ccc(C#N)cc2)C(=O)O)CCCN1S(=O)(=O)c1cc(Cl)cc(Cl)c1,1.6 nM,inhibition [1]: 29%
C[C@@]1(C(=O)N[C@@H](Cc2ccc(C(F)(F)F)cc2)C(=O)O)CCCN1S(=O)(=O)c1cc(Cl)cc(Cl)c1,3.9 nM,inhibition [1]: 25%
C[C@@]1(C(=O)N[C@H](Cc2ccccc2)C(=O)O)CCCN1S(=O)(=O)c1cc(Cl)cc(Cl)c1,152 nM,
C[C@@]1(C(=O)N[C@@H](Cc2cccc(Cl)c2)C(=O)O)CCCN1S(=O)(=O)c1cc(Cl)cc(Cl)c1,1.7 nM,inhibition [1]: < 16%
C[C@@]1(C(=O)N[C@@H](Cc2ccc(I)cc2)C(=O)O)CCCN1S(=O)(=O)c1cc(Cl)cc(Cl)c1,4.77 nM,inhibition [4]: 58%
C[C@@]1(C(=O)N[C@@H](Cc2ccc(OC(F)(F)F)cc2)C(=O)O)CCCN1S(=O)(=O)c1cc(Cl)cc(Cl)c1,3.8 nM,Vd [2]: 1.4 L/kg; clearance [3]: 36 mL/min/kg; half-life (in vivo): 54 min
C[C@@]1(C(=O)N[C@@H](Cc2ccncc2)C(=O)O)CCCN1S(=O)(=O)c1cc(Cl)cc(Cl)c1,1.31 nM,inhibition [1]: 13%
CCc1ccc(C[C@H](NC(=O)[C@]2(C)CCCN2S(=O)(=O)c2cc(Cl)cc(Cl)c2)C(=O)O)cc1,1.88 nM,inhibition [1]: 2%
C[C@]1(C(=O)N[C@H](Cc2ccccc2)C(=O)O)CCCN1S(=O)(=O)c1cc(Cl)cc(Cl)c1,28400 nM,

# Reference: ChEMBL document CHEMBL1135072, “Substituted N-(3,5-dichlorobenzenesulfonyl)-L-prolyl-phenylalanine analogues as potent VLA-4 antagonists” (Bioorg Med Chem Lett, 2002)
